Source: paper PMC7566913, “Dual Gene Delivery Reagents From Antiproliferative Alkylphospholipids for Combined Antitumor Therapy” (Frontiers in Chemistry, 2020)

Tests used:
[1] = CMC/CAC by pyrene fluorescent probe technique in ultrapure water; type: physicochemical; settings: pyrene fluorescence
Experimental: The pro-APL molecules have been specifically engineered so they can be metabolized in situ under a biological stimulus to revert to the parent APL with antiproliferative activity. […] We thus aimed to determine the self-assembly properties of the APL prodrugs. […] Pyrene is a probe which fluorescence is sensitive to the polarity of the solubilizing medium. […] Fluorescence measurements were carried out in ultrapure water and data obtained for the various APLs and their prodrugs are shown in Table 2.
Pro-APLs Self-Assembly Properties
Starting from a lipid film, compounds were […]

[2] = tested on: sheep RBC; assay: Hemolytic activity, red blood cell leakage assay; settings: 37°C
Experimental: To evaluate this hypothesis, the hemolytic activity of the APLs and pro-APLs was measured. Sheep RBC were incubated for 1 h with escalating doses of aqueous dispersion of the compounds at 37°C. At the end of the incubation period, hemoglobin leakage was determined spectrophotometrically.
Thus, in order to better characterize the hemolytic effect of the pro-APLs, the incubation period has been extended and release of hemoglobin was measured after 24 h.
Red blood cell (RBC) leakage assay was carried out according to a previously described procedure
(Evans et al, 2013). RBC were prepared from defibrinated sheep blood. Briefly, blood sample (5 mL) was centrifuged at 500 x g for 5 min. After removal of the yellow upper layer, an equal volume of

[3] = Particle size and zeta potential of lipoplexes by DLS; type: physicochemical; settings: lipoplexes with pCMV-Gluc, 25 °C, 5 % glucose, N/P 3, 1 molar equivalent of DOPE
Description: The capacity of the pro-APLs to interact electrostatically with nucleic acids and form lipoplexes was checked by standard agarose gel electrophoresis. […] The size (hydrodynamic diameter) and charge (zeta potential, ζ) of the lipoplexes prepared at an N/P ratio of 3 with one molar equivalent of dioleoyl-sn-glycero-3-phosphatidylethanolamine (DOPE), a lipid with fusogenic properties (Hui et al., [1996]; Zuhorn et al., [2005]), were investigated by DLS (Supplementary Table 1).
as measured by DLS. Lipoplexes were prepared at 25 °C, in 5 % glucose, at a N/P ratio of 3 and with
1 molar equivalent of DOPE.
(Gaillard et al., 2019). Data are the mean of three independent measurements (± SD).

[4] = Hydrolytic stability of the APL prodrugs monitored by 31P-NMR; type: physicochemical
Description: Aqueous formulation of the APL prodrugs produces nanosized lipid aggregates that most likely enter cells through the endocytosis pathway. To produce the expected intrinsic antineoplastic effect, APL-derived phosphotriesters need to be processed into the bioactive parent APLs. The hydrolysis of the prodrugs may be under the control of a chemical stimulus, e.g., a pH decrease as observed during the maturation of endosomes, or of degradation enzymes that massively enter the endosome compartment when continuing to lysosomes. To get some information on the transformation of pro-APLs into APLs, we monitored the hydrolysis of these compounds over time, at pH 7.4 and 4.5, conditions that mimick the extracellular milieu and the environment of the late endosome, respectively. This monitoring was realized using ^31P-NMR spectroscopy, according to a previously reported method (Pierrat et al., [2013b]). Whatever the compound investigated, only one single ^31P resonance did appear during the course of the experiments, corresponding to that of the parent APL. This confirmed that hydrolysis of the pro-APLs selectively occurred at the acetal center. […] As a general trend, hydrolysis of the pro-APLs was […] under neutral conditions (i.e., pH 7.4) than under acidic ones (i.e., pH 4.5). […] Besides, substitution of one hydrogen atom with a methyl group on the acetal bridge accelerated the rate of hydrolysis of the prodrugs. […] Indeed, in biological media, the enzyme-mediated hydrolysis of such compounds can proceed far quicker than “simple” chemical hydrolysis under pH control (Pierrat et al., [2012]). […]

[5] = tested on: H292 cells; assay: Cytotoxicity, MTT assay, H292; type: cell-based, human; settings: Homo sapiens, NCI-H292, H292, 24 h at 37°C
Experimental: (§1) The cells were exposed for a 24-h period to increasing concentration of the pro-APLs, ranging from 500 nM to 1 mM, and cell viability was assessed using the MTT colorimetric assay (Mosmann, [1983]). For the three cell lines, viability decreased in a dose-dependent manner in response to APLs and pro-APLs (Supplementary Figures 2–4). Using the best-fit regression curve method, the IC50 value (concentration that provokes 50% inhibition of the cell growth) was calculated for each compound (Table 4). The three cell lines responded to the compounds with varying sensitivities. […] This is attributed to enzyme-mediated hydrolysis of the pro-APL compounds in the complemented culture medium or in the intracellular compartment, competing with pure pH-controlled chemical hydrolysis. According to its structure, a pro-APL may or not be a substrate for specific lipases and, thus, may or not be hydrolyzed into the parent cytotoxic compound. […]
(§2) At confluency, cells were released […]
(§3) Cells were seeded into 96-well plates (Becton-Dickinson) at the required density (vide supra) in 100 µL of serum containing culture medium. […]
(§4) Mitochondrial activity measurements (MTT assay) was used to assess cytotoxicity of the compounds.
(§5) Lipid samples were prepared from a lipid film (3.6 µmol of compound evaporated from an ethanolic solution) hydrated with aqueous glucose 5 % and vigorously vortexed for 20 s before serial dilution in aqueous glucose 5 %. For addition of lipid samples to cell culture, part of the culture medium in the culture plates prepared the day before (25 µL) was removed and replaced by lipid samples (25 µL). Negative control was obtained by adding glucose 5 % to the cells instead of lipoplexes.
(§6) After a 24-h incubation period at 37 °C, culture supernatant was removed, cells were carefully washed with PBS and MTT (100 µL, 0.5 mg/mL) in complete culture medium was added. After a 1-h incubation period at 37 °C, the MTT sol ution was removed and DMSO (100 µL) was added to lyse cells and dissolve reduced MTT. Intensity of MTT reduction was then evaluated by measuring absorbance at 492 nm. Viability of cells treated with lipids or lipoplexes was expressed as the percentage of the absorbance measured in untreated cells. Value for each sample is the mean of triplicate determinations (± SD). IC50 values were determined within the 95 % confidence interval using nonlinear regression analysis with the GraphPad Prism software (GraphPad Software, San […]
(§7) All data are representative of a triplicate determination and are presented as the mean ± SD.
(§8) Statistical significance between treatments was assessed by one-way analysis of variance (ANOVA) followed by the Dunnett multiple comparison test, using the Kaleidagraph 4.5 software (Synergy Software, Reading, PA, USA). Data were considered as statistically significant for p value less than

[6] = tested on: A549 cells; assay: Gene transfer efficiency, pCMV-Gluc luciferase reporter gene assay; type: cell-based, human; settings: A549, N/P 3, 1 eq. DOPE
Description: The efficacy of the pro-APLs to mediate intracellular delivery of a plasmid DNA was examined in A549 human lung epithelial carcinoma cells using the pCMV-Gluc reporter gene encoding the luciferase of Gaussia princeps. This luciferase is secreted by cells and transgene expression can be conveniently assessed by standard bioluminescence measurements on aliquots of the cell culture supernatant, without need for prior cell lysis. Lipoplexes were formulated in glucose 5% at N/P ratios of 1, 3, and 5, with increasing amounts of DOPE as a helper lipid. They were deposited onto cells in the presence of 10% serum and luciferase activity was measured after 24 h (Figure 3). […] The influence of the nature of the pendant hydrophobic arm was also examined.
To investigate the effect of serum on the gene delivery properties of the APL prodrugs, cells were treated with lipoplexes in the presence of an increasing concentration of serum (Figure 5). Two DNA doses were considered.
Figure 5 Transfection efficiency of pro-APLs ME12 (A), PE12 (B), and EE12 (C) as a function of serum content. Pro-APL/DNA complexes were prepared at N/P 3, with 1 molar eq. of DOPE. A549 cells (6,000 cells/well) were seeded into 96-well plates in 100 μL of culture medium containing 10% serum. Twenty-four hours later, cell supernatant was replaced with culture medium complemented with increasing amounts of serum (from 10 to 75%) just before adding the lipoplexes (0.2 and 0.4 μg of DNA per well; light and deep purple bars, resp.). Control (light blue bar) refers to basal bioluminescence measured in untreated cells. […] Statistical significance vs. control. ***p < 0.001, **p < 0.01, *p < 0.05.

[7] = tested on: A549 cells; assay: Cytotoxicity, MTT assay, A549; type: cell-based, human; settings: Homo sapiens, A549, 24 h at 37°C
Experimental: as §1, §2, §3, §4, §5, §6, §7, §8

CCCCCCCCCCCCCCCCCCOP(=O)(OCOC(=O)CCCCCCCCCCC)OC1CC[N+](C)(C)CC1.[Cl-] (stereo not shown) [PE12, 4-((((Dodecanoyloxy)methoxy)(octadecyloxy)phosphoryl)oxy)-1,1-dimethylpiperidin-1-ium chloride]
CMC (APLs) / CAC (pro-APLs) [1]: 2.9 ± 1.0 µM | HA200 (hemolytic activity at 200 μM) ([2]; 1 h): 7.1 ± 0.9% | HA200 (hemolytic activity at 200 μM) ([2]; 24 h): 20.6 ± 5.9% | Particle size of lipoplexes [3]: 330 ± 76 nm | H120 (hydrolysis rate after a 120-h incubation period) ([4]; pH 4.5): 2% | H120 (hydrolysis rate after a 120-h incubation period) ([4]; pH 7.4): 16% | IC50 [5]: 168 ± 7 µM | Serum content up to which significant transgene expression was mediated ([6]; DNA dose 0.2 μg/well): up to 50 % serum | Serum content up to which transfection activity extended ([6]; DNA dose 0.4 μg/well): up to 75 % serum | IC50 [7]: 139 ± 4 µM
